# Results taken from patent publication US20250281460A1, “PEGYLATED BILIRUBIN FOR THE TREATMENT OF […], OBESITY, FATTY LIVER DISEASE, CARDIOVASCULAR DISEASES AND TYPE II DIABETES” (The University of Toledo, priority 2019, published 2025).
# “Also recorded” adds a separate entry of the source.
# Experiments:
# 3T3-L1 cells [1] = experiment: Adipogenesis assay, lipid accumulation (Nile Red) in 3T3-L1 cells; format: cell-based, mouse; details: over 9-day adipocytic differentiation
# Experimental: (§1) Whether bilirubin decreases adiposity by enhancing mitochondrial function was evaluated. It was previously shown that bilirubin reduces lipid accumulation in adipocytes. However, it remained to be determined if this occurs by activation of PPARα to reduce adiposity, selective actions on PPARγ, or is a dual PPAR agonist, which together may mediate its glucose- and lipid-lowering effects. First, to determine if bilirubin enhances genes for mitochondrial function, 3T3-L1 cells, a WAT-type murine pre-adipocyte cell line that differentiates to full adipocytes, were treated with increasing concentrations of biliverdin, which is more soluble and is rapidly produced to bilirubin, over the 9-day adipocytic differentiation protocol.
# 3T3-L1 cells [2] = experiment: Real-time PCR of mitochondrial and lipid burning genes in 3T3-L1 cells; format: cell-based, mouse
# Experimental: as §1
# (§2) Total RNA was extracted from mouse tissues using the miRNeasy Mini Kit (Qiagen). Total RNA was read on a NanoDrop 2000 spectrophotometer (Thermo Fisher Scientific, Wilmington, DE) and cDNA was synthesized using High Capacity cDNA Reverse Transcription Kit (Applied Biosystems). PCR amplification of the cDNA was performed by quantitative real-time PCR using TrueAmp SYBR Green qPCR SuperMix (Advance Bioscience). The thermocycling protocol consisted of 3 min at 95° C., 48 cycles of 15 sec at 95° C., 30 sec at 60° C., and based on primer size 0 to 30 sec at 72° C. and finished with a melting curve ranging from 60-95° C. to allow distinction of specific products. Normalization was performed in separate reactions with primers to 36B4.
# 3T3-L1-WAT adipocytes = experiment: SeaHorse oxygen consumption rate in fully differentiated 3T3-L1-WAT adipocytes; format: cell-based, mouse; details: 50 μM biliverdin, 50 μM WY 14,463, 10 μM rosiglitazone
# Experimental: To compare the effects of bilirubin on the activation of PPARα or PPARγ on mitochondrial function, a SeaHorse XFe96 Analyzer was used to measure oxygen consumption rate (OCR) in fully differentiated 3T3-L1-WAT adipocytes treated with 50 μM biliverdin, 50 μM WY 14,463 (PPARα agonist), or 10 μM rosiglitazone (PPARγ-agonist). […]. Rosiglitazone, but not biliverdin or WY 14,643, enhanced the coupling efficiency. None of the ligands affected non-mitochondrial respiration, basal respiration, or proton leak.
# (§3) Cellular respiration was quantified using the Seahorse Extracellular Flux Analyzer XF-96 (Agilent Technologies, Cedar Creek, TX). The Seahorse XF Cell Mito Stress Test Kit (Agilent Technologies, Cat #103015-100) was used for analysis of cellular respiration. BAT or 3T3-L1 cells were seeded on a XF96 cell culture microplate (Agilent 101085-004) at 20,000 cells per well. Cells were then differentiated as previously described for 9 days. […] The oxygen consumption rate (OCR) and extracellular acidification rate (ECAR) were used to quantify the cellular energy phenotype of the cells. After treatment, cells were washed twice with Seahorse Bioscience Assay Media (XF Base media with 25 mM Glucose, 2 mM […], and 1 mM Sodium Pyruvate) then incubated with the buffer for 1 hour in a non-CO2 incubator. The Seahorse Cartridge ports were loaded with […] of assay media with […] FCCP, 10 μM Oligomycin, 5 μM Rotenone/Antimycin A in different ports an hour before assay. […] The raw data and graphs were supplied as an Excel File or Graphpad Prizm file.
# 3T3-PPARα cells = experiment: SeaHorse mitochondrial respiration in 3T3-PPARα cells; format: cell-based, mouse; details: 3T3-L1 cells overexpressing PPARα
# From the text: (§4) To investigate the specific role of bilirubin on PPARα or PPARγ as well as mitochondrial function and gene regulation, 3T3-LI cells that overexpressed each receptor (3T3-PPARα or 3T3-PPARγ2) were generated via lentivirus (FIGS. 2A-2B). […] The 3T3-Vector cells had no responses to biliverdin in FIGS. 2A-2B.
# as §3
# 3T3-PPARγ2 cells = experiment: SeaHorse mitochondrial respiration and gene activity in 3T3-PPARγ2 cells; format: cell-based, mouse; details: 3T3-L1 cells overexpressing PPARγ2
# From the text: as §4, §3
# BAT cells [3] = experiment: SeaHorse analysis in murine BAT cell line (wild-type); format: cell-based
# BAT cells [4] = experiment: Real-time PCR in differentiated BAT cells; format: cell-based, murine; details: 50 μM biliverdin, 50 μM WY14,463, 10 μM rosiglitazone, 24 hrs
# Experimental: as §2
# Adrb3 promoter = Adrb3 promoter luciferase reporter in Cos7 cells with or without PPARα; format: cell-based, murine
# Experimental: To determine if biliverdin/bilirubin is increasing Adrb3 in a PPARa-dependent manner, the proximal (−2816 to +118) and enhancer (−4770 to −4430) regions of the murine promoter in the pGL4.10 construct were cloned. The constructs were transfected with or without PPARα in receptorless Cos7 cells. The proximal promoter had no response with or without PPARα expressed in Cos7 cells (FIGS. 3D-3E). […] Therefore, various areas within the Adrb3 promoter were analyzed using the information from the luciferase promoter data and with analysis of several suspected PPREs in the promoter region.
# An expression vector for Flag-Tagged PPARα was constructed as previously described. The cells were transfected with RXR-SG5 and either WT-Flag PPARα or with a Flag-Tagged PPARα plasmid with one of the following mutations: M330G, A333G, or T283G, in order to determine if binding of bilirubin at previously predicted positions would alter activity. Cells were also transfected with RXR-SG5 to enhance PPAR activity and the PPAR minimal reporter promoter plasmid (3Tk-Luc), whose activity was measured by luciferase, and pRL-CMV Renilla reporter for normalization to transfection efficiency. Transient transfection was achieved using GeneFect (Alkali Scientific, Inc.) during a 24-hour span.
compound,measurement,setting,value
C=CC1=C(C)/C(=C/C2=NC(=C\c3[nH]c(/C=C4\NC(=O)C(C)=C4C=C)c(C)c3CCC(=O)O)/C(CCC(=O)O)=C2C)NC1=O [biliverdin],lipid accumulation,3T3-L1 cells [1]; 1 μM,did not reduce
same,lipid accumulation,3T3-L1 cells [1]; 10 μM,significantly reduced
same,lipid accumulation,3T3-L1 cells [1]; 50 μM,significantly reduced
same,lipid accumulation,"3T3-L1 cells [1]; 50 μM, listed as Biliverdin",significantly reduced; also recorded: substantially decreased
same,Ucp1 mRNA,3T3-L1 cells [2]; 1 μM,significantly heightened
same,Cpt1 mRNA expression,3T3-L1 cells [2]; 50 μM,significantly increased
same,Ucp1 mRNA expression,3T3-L1 cells [2]; 50 μM,significantly increased
same,ATP production,3T3-L1-WAT adipocytes,significantly elevated
same,mitochondrial OCR for maximum respiration,3T3-L1-WAT adipocytes,significantly increased
same,ATP production,3T3-PPARα cells,significantly higher
same,basal respiration,3T3-PPARα cells,significantly higher
same,maximum respiration,3T3-PPARα cells,significantly higher
same,proton leak,3T3-PPARα cells,significantly higher
same,gene related activity,3T3-PPARγ2 cells,did not have significant increase
same,mitochondrial respiration,3T3-PPARγ2 cells,no significant changes
same,mitochondrial function,BAT cells [3]; BAT cells,increasing
same,proton leak,BAT cells [3]; BAT cells,stimulated
same,ATP production,"BAT cells [3]; WT BAT cells, 24 hours",increased; also recorded: stimulated
same,basal respiration (OCR),"BAT cells [3]; WT BAT cells, 24 hours",increased
same,maximum respiration (OCR),"BAT cells [3]; WT BAT cells, 24 hours",increased; also recorded: significantly higher
same,Adrb3 mRNA,BAT cells [4],significant increase; also recorded: only significantly higher
same,Ucp1 mRNA,BAT cells [4],significant increase
same,"luciferase activity, enhancer region with mutated PPREs",Adrb3 promoter; mutations in each PPRE separately,no induction
same,"luciferase activity, enhancer (−4770 to −4430) region",Adrb3 promoter; with PPARα overexpression,significantly higher
same,"luciferase activity, proximal (−2816 to +118) promoter",Adrb3 promoter; with or without PPARα expressed in Cos7 cells,no response
